Data taken from article PMC8630742, “Citrullinated Epitopes Identified on Tumour MHC Class II by Peptide Elution Stimulate Both Regulatory and Th1 Responses and Require Careful Selection for Optimal Anti-Tumour Responses” (Frontiers in Immunology, 2021).

What was measured:
[1] = system: HLA-DP4; test: HLA-DP4 competition binding assay against biotinylated Hepatitis B peptide (membrane preps, ELISA); design: species or system human; settings: Figure 1D; for binding of the reference Hepatitis B peptide in presence of competitor (% maximal binding): equal quantity of non-biotinylated competitor and 10 µg biotinylated HepB 181-193, B16HHDII/cDP4 membrane preps, 4 hrs 37°C, streptavidin ELISA, anti-HLA-DP; for competition with the Hepatitis B reference peptide: equal quantity of competitor and 10 µg biotinylated HepB 181-193
Description: Binding of peptides to HLA-DP4 was assessed by extraction of membrane fractions from B16HHDII/cDP4 cells using Mem-PER™ Plus Membrane Protein Extraction Kit (Thermo Fisher-Scientific) according to manufacturer’s instructions. Membrane preps containing HLA-DP4 were incubated with 10 µg biotinylated peptide for 4hrs at 37°C. For competition assays, the membrane preps and 10 µg biotinylated Hepatitis B peptide were pre-incubated in the presence of specified concentrations of non-biotinylated peptides. Biotinylated peptide bound to HLA-DP4 was detected by capture onto streptavidin-coated ELISA plates and detected with anti-HLA-DP antibody clone B7/21 (Leinco Technologies Inc, USA) and anti-mouse IgG3 HRP antibody (Invitrogen, UK). Binding was quantified with TMB substrate and absorbance read at 405nm wavelength.
Figure 1 Citrullinated peptide combination vaccination provides poor tumour therapy in HLA-DP4 transgenic mice. HLA-DP4 transgenic mice were challenged with B16 cells constitutively expressing DP4 (A) or expressing DP4 under an IFNγ inducible promoter (B) and four days later mice were immunised with combination of 10ug each of seven eluted peptides and tumour growth and survival monitored. N=10/group. (C), HLA-DP4 transgenic mice were immunised with seven peptide combination vaccine at days 1, 8 and 15 and immune responses monitored at day 21 by IFNγ ELISpot assay. Results are representative of at least two independent experiments in which n=3. (D), Competition of equal quantity of non-biotinylated competitor peptides in the presence of 10µg biotinylated HepB 181-193 peptide. Results are representative of at least two independent experiments.

[2] = system: splenocytes (IFNγ); test: Ex vivo IFNγ ELISpot assay on splenocytes of immunised mice; format: in vivo, mouse; settings: for IFNγ response at lower (10µg) immunising peptide dose / IFNγ response to immunising peptide: HLA-DP4 transgenic mice; for IFNγ response at lower (10µg) immunising peptide dose: 10µg single peptide, Figure 2F; for IFNγ response to immunising peptide: 25µg single peptide with CpG and MPLA days 1, 8, 15, splenocytes day 21, 10 µg/mL peptide, Figure 2A; for IFNγ response in presence of CD4 blocking antibody: anti-CD4 OKT4 20µg/ml, C; for avidity of the immune response: titrating quantities of peptide in IFNγ ELISpot, Figure 2E
Description: (§1) For all studies, the mice were randomised into different groups but not blinded to the investigators. Peptides were dissolved in PBS and then emulsified with CpG (ODN 1826, Invivogen) and MPLA (Invivogen) and delivered at 10 or 25µg dose unless stated otherwise. Adjuvants were used at 5µg/dose. Peptides in adjuvant were injected subcutaneously at the base of the tail. Mice were immunised on day 1, 8 and 15 and spleens were removed for analysis at day 21.
ELISpot assays were performed using murine IFNγ and IL-10 capture and detection reagents according to the manufacturer’s instructions (Mabtech). In brief, the specific cytokine antibodies were coated onto wells of 96-well Immobilin-P plates. […] (RPMI medium 1640 (GIBCO/BRL) supplemented with 10% FCS (Sigma), 2mM L-glutamine (Sigma) and sodium bicarbonate buffered with additional 20mM HEPES (Sigma) and 50 µM 2-mercaptoethanol (2ME, Thermofisher). 5x10^5/well splenocytes were added in quadruplicate wells, plates were incubated for 40 hours at 37 °C/5% CO2. Cells with culture media only were added as negative control and cells cultured with 5 µg/ml Lipopolysaccharide (LPS, Sigma) were used as a positive control. Where relevant anti-CD4 (human clone OKT4, BioXcell) or CD8 (mouse clone 2.43, BioXcell) blocking antibodies were added to splenocytes at 20µg/ml for 15 minutes prior to stimulation with peptide. After incubation, captured cytokine was detected by biotinylated cytokine specific antibody and developed using streptavidin alkaline phosphatase and chromogenic substrate. Spots were analysed and counted using an automated plate reader (Cellular Technologies Ltd). Results were represented as spots/million splenocytes.

[3] = system: splenocytes (IL-10); test: Ex vivo IL-10 ELISpot assay on splenocytes of immunised mice; format: in vivo, mouse; settings: for IL-10 response to immunising peptide: HLA-DP4 transgenic mice, 25ug single peptide with CpG/MPLA days 1, 8, 15, day 21, Figure 3A
Description: as §1
ELISpot assays were performed using murine IFNγ and IL-10 capture and detection reagents according to the manufacturer’s instructions (Mabtech). In brief, the specific cytokine antibodies were coated onto wells of 96-well Immobilin-P plates. Synthetic peptides (Genescript) were used at 10 µg/mL and diluted in culture media (RPMI medium 1640 (GIBCO/BRL) supplemented with 10% FCS (Sigma), 2mM L-glutamine (Sigma) and sodium bicarbonate buffered with additional 20mM HEPES (Sigma) and 50 µM 2-mercaptoethanol (2ME, Thermofisher). 5x10^5/well splenocytes were added in quadruplicate wells, plates were incubated for 40 hours at 37 °C/5% CO2. Cells with culture media only were added as negative control and cells cultured with 5 µg/ml Lipopolysaccharide (LPS, Sigma) were used as a positive control. Where relevant anti-CD4 (human clone OKT4, BioXcell) or CD8 (mouse clone 2.43, BioXcell) blocking antibodies were added to splenocytes at 20µg/ml for 15 minutes prior to stimulation with peptide. After incubation, captured cytokine was detected by biotinylated cytokine specific antibody and developed using streptavidin alkaline phosphatase and chromogenic substrate. Spots were analysed and counted using an automated plate reader (Cellular Technologies Ltd). Results were represented as spots/million splenocytes.

[4] = system: B16/HHDII/cDP4 (B16cDP4) cells; test: Tumour therapy, B16cDP4 melanoma in HLA-DP4 transgenic mice; format: in vivo, mouse; settings: for tumour free survival: 25ug individual peptide with CpG/MPLA, n=10/group, Figure 4A; for overall survival at day 50 / tumour growth: 25ug individual peptide, compared to unimmunised control, Figure 4
Description: as §1
For the tumour therapy studies, HHDII/DP4 transgenic mice were challenged by subcutaneous injection with 5 × 105 B16/HHDII/cDP4 (B16cDP4) cells or 1 × 105 B16/HHDII/iDP4 (B16iDP4) cells subcutaneously on the flank at day 1 and then immunised on days 4, 11 and 18. Tumour growth was monitored at 3–4 days intervals and mice were humanely euthanised once tumour approached 15mm diameter.

[5] = mice immunised with 25ug peptide, Figure 2B
[6] = mice immunised with 25ug peptide

| Substance | binding of the reference Hepatitis B peptide in presence of competitor (% maximal binding) [1] | IFNγ response to immunising peptide [2] | IL-10 response to immunising peptide [3] | tumour free survival [4] [%] | overall survival at day 50 / tumour growth [4] | other results |
| --- | --- | --- | --- | --- | --- | --- |
| EPKSSCYNTHEK-cit-IYQSNMLN-cit-YLI [citGRI, Synthetic citrullinated peptide Glutamate receptor ionotropic 316-340] | 40-50% | strong IFNγ responses | some IL-10-producing cells | 70 | significant overall survival | IFNγ response at lower (10µg) immunising peptide dose [2]: failed to stimulate an immune response; IFNγ response in presence of CD4 blocking antibody [2, 5]: efficiently blocked; avidity of the immune response [2, 6]: 10^-7 M |
| EPKSSCYNTHEKRIYQSNMLNRYLI [GRI, synthetic native peptide Glutamate receptor ionotropic 316-340] | – | – | – | – | – | IFNγ response to unmodified peptide in mice immunised with the citrullinated peptide ([2]; mice immunised with 25ug citGRI, Figure 2B): cross reactivity |
| LEIY-cit-YTSFVPFTIPHSTTR [citCp450, Synthetic citrullinated peptide Cytochrome P450 1A2 373-392] | 40-50% | absence of any detectable IFNγ response | strong IL-10 response | 20 | tumour growth similar to control | IL-10 response in HHDII/DR1 mice ([3]; HHDII/DR1 compared to HHDII/DP4 mice, Figure 3C): fail to be stimulated; IL-10 response in presence of CD4 blocking antibody ([3]; mice immunised with 25ug citCp450, did not reach significance, Figure 3B): reduction in response; IL-10 response when delivered as part of the combination vaccine ([3]; seven peptide combination vaccine, Figure 3D): stimulated IL-10 responses |
| NGQT-cit-EHALLAYTLGVKQLIVGVNK [citELO, Synthetic citrullinated peptide Elongation factor 1-alpha 1 130-154] | 40-50% | – | – | – | – | – |
| VFDWIRKERNQYGEVRV-cit-FNTYFFR [citMMP21, Synthetic citrullinated peptide Matrix metalloproteinase-21 337-360] | 40-50% | strong IFNγ responses | some IL-10-producing cells | 90 | strong overall survival | IFNγ response in HHDII/DR1 transgenic mice ([2]; HHDII/DR1 mice, Figure 2D): No responses; IFNγ response at lower (10µg) immunising peptide dose [2]: only the response to citMMP21 was observed; IFNγ response in presence of CD4 blocking antibody [2, 5]: reduced; IFNγ response in presence of CD8 blocking antibody ([2]; anti-CD8 2.43 20µg/ml, mice immunised with 25ug peptide, Figure 2C): No significant blocking; avidity of the immune response [2, 6]: 10^-8 M |
| collagen [reference compound] | – | – | – | – | – | competition with the Hepatitis B reference peptide [1]: no competition |
| fibrinogen [reference compound] | – | – | – | – | – | competition with the Hepatitis B reference peptide [1]: no competition |

The next lines start with results.

| binding of the reference Hepatitis B peptide in presence of competitor (% maximal binding) [1] | Substance | IFNγ response to immunising peptide [2] | IL-10 response to immunising peptide [3] | tumour free survival [4] [%] | overall survival at day 50 / tumour growth [4] | other results |
| --- | --- | --- | --- | --- | --- | --- |
| 30-35% | KRDVTLEAS-cit-ESSKP-cit-AVLKP-cit- [citSeThrePho, Synthetic citrullinated peptide Serine/threonine-protein phosphatase 2A 55 kDa regulatory subunit B gamma isoform 370-391] | – | – | – | – | – |
| 30-35% | MDEIDAIGG-cit-RFSEGTSADREIQ [cit26S-10B, Synthetic citrullinated peptide 26S protease regulatory subunit 10B 246-268] | – | – | – | – | – |
| 40-50% | ML-cit-CASGAEL-cit-QPPRDVPPDAR [cit5T4, Synthetic citrullinated peptide Trophoblast glycoprotein-like protein 40-61] | – | – | – | – | – |
